Laboratory results: ChEMBL document CHEMBL4811309, “Design, synthesis and antiproliferative activity of novel 2,4-diamino-5-methyleneaminopyrimidine derivatives as potential anticancer agents” (Bioorg Med Chem Lett, 2021)

Experiments:
HCT-116 [1] = assay: Antiproliferative activity against human HCT-116 cells assessed as reduction in cell viability by MTT assay; type: functional, cell-based
HT-29 [2] = assay: Antiproliferative activity against human HT-29 cells assessed as reduction in cell viability by MTT assay; type: functional, cell-based
HeLa [3] = assay: Antiproliferative activity against human HeLa cells assessed as reduction in cell viability by MTT assay; type: functional, cell-based
MCF7 [4] = assay: Antiproliferative activity against human MCF7 cells assessed as reduction in cell viability by MTT assay; type: functional, cell-based
HCT-116 [5] = assay: Cell cycle arrest in human HCT-116 cells assessed as accumulation at G0/G1 phase at 2.5 uM measured after 24 hrs by propidium iodide staining based flow cytometry analysis (reference value: 30.60 %); type: functional
HCT-116 [6] = assay: Cell cycle arrest in human HCT-116 cells assessed as accumulation at G0/G1 phase at 5 uM measured after 24 hrs by propidium iodide staining based flow cytometry analysis (reference value: 30.60 %); type: functional
HCT-116 [7] = assay: Cell cycle arrest in human HCT-116 cells assessed as accumulation at G0/G1 phase at 10 uM measured after 24 hrs by propidium iodide staining based flow cytometry analysis (reference value: 30.60 %); type: functional
HCT-116 [8] = assay: Cell cycle arrest in human HCT-116 cells assessed as accumulation at G2M phase at 2.5 uM measured after 24 hrs by propidium iodide staining based flow cytometry analysis (reference value: 30.39 %); type: functional
HCT-116 [9] = assay: Cell cycle arrest in human HCT-116 cells assessed as accumulation at G2M phase at 5 uM measured after 24 hrs by propidium iodide staining based flow cytometry analysis (reference value: 30.39 %); type: functional
HCT-116 [10] = assay: Cell cycle arrest in human HCT-116 cells assessed as accumulation at G2M phase at 10 uM measured after 24 hrs by propidium iodide staining based flow cytometry analysis (reference value: 30.39 %); type: functional
HCT-116 [11] = assay: Cell cycle arrest in human HCT-116 cells assessed as accumulation at S phase at 2.5 uM measured after 24 hrs by propidium iodide staining based flow cytometry analysis (reference value: 39%); type: functional
HCT-116 [12] = assay: Cell cycle arrest in human HCT-116 cells assessed as accumulation at S phase at 5 uM measured after 24 hrs by propidium iodide staining based flow cytometry analysis (reference value: 39%); type: functional
HCT-116 [13] = assay: Cell cycle arrest in human HCT-116 cells assessed as accumulation at S phase at 10 uM measured after 24 hrs by propidium iodide staining based flow cytometry analysis (reference value: 39%); type: functional
HCT-116 [14] = assay: Induction of apoptosis in human HCT-116 cells assessed as early apoptotic cells at 2.5 uM incubated for 24 hrs by Annexin V-FITC and propidium iodide staining based flow cytometry analysis (reference value: 6.19 %); type: functional
HCT-116 [15] = assay: Induction of apoptosis in human HCT-116 cells assessed as late apoptotic cells at 2.5 uM incubated for 24 hrs by Annexin V-FITC and propidium iodide staining based flow cytometry analysis (reference value: 0.899 %); type: functional
HCT-116 [16] = assay: Induction of apoptosis in human HCT-116 cells assessed as necrotic cells at 2.5 uM incubated for 24 hrs by Annexin V-FITC and propidium iodide staining based flow cytometry analysis (reference value: 0.019 %); type: functional
HCT-116 [17] = assay: Induction of apoptosis in human HCT-116 cells assessed as viable cells at 2.5 uM incubated for 24 hrs by Annexin V-FITC and propidium iodide staining based flow cytometry analysis (reference value: 92.9 %); type: functional; details: read-out: Activity
HCT-116 [18] = assay: Induction of apoptosis in human HCT-116 cells assessed as early apoptotic cells at 5 uM incubated for 24 hrs by Annexin V-FITC and propidium iodide staining based flow cytometry analysis (reference value: 6.19 %); type: functional
HCT-116 [19] = assay: Induction of apoptosis in human HCT-116 cells assessed as late apoptotic cells at 5 uM incubated for 24 hrs by Annexin V-FITC and propidium iodide staining based flow cytometry analysis (reference value: 0.899 %); type: functional
HCT-116 [20] = assay: Induction of apoptosis in human HCT-116 cells assessed as necrotic cells at 5 uM incubated for 24 hrs by Annexin V-FITC and propidium iodide staining based flow cytometry analysis (reference value: 0.019 %); type: functional
HCT-116 [21] = assay: Induction of apoptosis in human HCT-116 cells assessed as viable cells at 5 uM incubated for 24 hrs by Annexin V-FITC and propidium iodide staining based flow cytometry analysis (reference value: 92.9 %); type: functional; details: read-out: Activity
HCT-116 [22] = assay: Induction of apoptosis in human HCT-116 cells assessed as early apoptotic cells at 10 uM incubated for 24 hrs by Annexin V-FITC and propidium iodide staining based flow cytometry analysis (reference value: 6.19 %); type: functional
HCT-116 [23] = assay: Induction of apoptosis in human HCT-116 cells assessed as late apoptotic cells at 10 uM incubated for 24 hrs by annexin V-FITC and propidium iodide staining based flow cytometry analysis (reference value: 0.899 %); type: functional
HCT-116 [24] = assay: Induction of apoptosis in human HCT-116 cells assessed as necrotic cells at 10 uM incubated for 24 hrs by Annexin V-FITC and propidium iodide staining based flow cytometry analysis (reference value: 0.019 %); type: functional
HCT-116 [25] = assay: Induction of apoptosis in human HCT-116 cells assessed as viable cells at 10 uM incubated for 24 hrs by Annexin V-FITC and propidium iodide staining based flow cytometry analysis (reference value: 92.9 %); type: functional; details: read-out: Activity
HCT-116 [26] = assay: Potency index, ratio of 5-FU IC50 to test compound IC50 for antiproliferative activity against human HCT-116 cells by MTT assay; type: functional
HT-29 [27] = assay: Potency index, ratio of 5-FU IC50 to test compound IC50 for antiproliferative activity against human HT-29 cells by MTT assay; type: functional
HeLa [28] = assay: Potency index, ratio of 5-FU IC50 to test compound IC50 for antiproliferative activity against human HeLa cells by MTT assay; type: functional
MCF7 [29] = assay: Potency index, ratio of 5-FU IC50 to test compound IC50 for antiproliferative activity against human MCF7 cells by MTT assay; type: functional

CCOC(=O)/C=N/c1cnc(Nc2ccc(N3CCOCC3)cc2)nc1NC1CCCC1 gave an IC50 (HCT-116 [1]) of 4.93 µM, an IC50 (HT-29 [2]) of 5.57 µM and an IC50 (HeLa [3]) of 14.2 µM. The IC50 (MCF7 [4]) was 8.84 µM, the Activity (HCT-116 [5]) was 34.63% and the Activity (HCT-116 [6]) was 36.46%. It also gave an Activity (HCT-116 [7]) of 41.55%, an Activity (HCT-116 [8]) of 27.6% and an Activity (HCT-116 [9]) of 33.02%. It also gave an Activity (HCT-116 [10]) of 29.98%, an Activity (HCT-116 [11]) of 37.77% and an Activity (HCT-116 [12]) of 30.52%. The Activity (HCT-116 [13]) was 28.47%, the Activity (HCT-116 [14]) was 10.6% and the Activity (HCT-116 [15]) was 8.86%. It also gave an Activity (HCT-116 [16]) of 0.195%, a viability at 2.5 µM (HCT-116 [17]) of 80.3% and an Activity (HCT-116 [18]) of 24.2%. For the same compound, the Activity (HCT-116 [19]) was 11.7%, the Activity (HCT-116 [20]) was 0.62% and the viability at 5 µM (HCT-116 [21]) was 63.5%. It also gave an Activity (HCT-116 [22]) of 28%, an Activity (HCT-116 [23]) of 24.4% and an Activity (HCT-116 [24]) of 3.09%. For the same compound, the viability at 10 µM (HCT-116 [25]) was 44.5%, the “Ratio IC50” value (HCT-116 [26]) was 4.9 and the “Ratio IC50” value (HT-29 [27]) was 2.9. The Ratio IC50 (HeLa [28]) was 3 and the Ratio IC50 (MCF7 [29]) was 2.1.
